Measured values from US20030013711A1, “Chemical derivatives and their application as antitelomerase agents” (priority 2001, published 2003).

Test system: A549 cells
Experiment: Cytotoxicity on human tumor line A549 (neutral red)
Format: cell-based
Details: 96 hours incubation
Procedure: The Cytotoxic Biological Activity on Human Tumor Lines is Determined According to the Following Experimental Protocol:
The human cell lines KB and A549 are obtained from the ATCC (American Type Culture Collection, Rockville, USA). The A549 cells are cultured as a layer in a culture flask in RPMI 1640 medium, L-glutamine to 2 mM, 200 U/ml penicillin, 200 μg/ml streptomycin and supplemented with 10% heat-inactivated fetal calf serum. The KB cells are cultured as a layer in a culture flask in Dulbelco's medium containing L-glutamine to 2 mM, 200 U/ml penicillin, 200 μg/ml streptomycin and supplemented with 10% heat-inactivated fetal calf serum.
The cells in exponential growth phase are trypsinized, washed in PBS 1×, and inoculated in 96-well microplates (Costar) at a concentration of 4×10^4 cells/ml for A549 and 1.5×10^4 cells/ml (0.2 ml/well) for KB cells. The cells are then incubated for 96 hours in the presence of variable concentrations of test compounds (10, 1, 0.1 and 0.01 μg/ml, each point being determined in quadruplicate). Sixteen hours before the end of the incubation, neutral red is added to a final concentration of 0.02% in each well. […] The cellular incorporation of the dye, which reflects the cell growth, is evaluated by spectrophotometry at a wavelength of 540 nm for each sample using a Dynatech MR5000 reading machine. […]

## CSc1nc(Nc2ccc3nc(C)cc(N)c3c2)nc(OC2CCN(C)CC2)n1 [Example 3, N6-[6-(1-methylpiperid-4-yloxy)-4-methylsulfanyl-[1,3,5]triazin-2-yl]-2-methylquinoline-4,6-diamine]
  IC50: 6 µM
